From ChEMBL document CHEMBL1828590 (J Med Chem, 2011) come the findings set out here.

What is called pKi is the negative decadic logarithm of the Ki, by convention in mol/L. A higher pKi goes with a small Ki. What is called pIC50 is −log10 of the IC50, conventionally taken in molar units. For orientation: Papp B→A means how fast a substance crosses the layer from the basolateral side. By Papp A→B is commonly meant how fast a substance crosses the layer from the apical side. In general, logD refers to lipophilicity at a set pH, counting ionised and neutral species. The half-life is the time in which the quantity being followed falls by half. Broadly, the MTD is the largest dose that counted as tolerated. What is called bioavailability is dose-corrected exposure relative to a reference, in per cent. Low readings indicate little systemic uptake, high ones much systemic uptake.

For data set [1], the target named is Histone deacetylase 3 (Homo sapiens, UniProt O15379).
Histone deacetylase 3, sequence (O15379 whole entry): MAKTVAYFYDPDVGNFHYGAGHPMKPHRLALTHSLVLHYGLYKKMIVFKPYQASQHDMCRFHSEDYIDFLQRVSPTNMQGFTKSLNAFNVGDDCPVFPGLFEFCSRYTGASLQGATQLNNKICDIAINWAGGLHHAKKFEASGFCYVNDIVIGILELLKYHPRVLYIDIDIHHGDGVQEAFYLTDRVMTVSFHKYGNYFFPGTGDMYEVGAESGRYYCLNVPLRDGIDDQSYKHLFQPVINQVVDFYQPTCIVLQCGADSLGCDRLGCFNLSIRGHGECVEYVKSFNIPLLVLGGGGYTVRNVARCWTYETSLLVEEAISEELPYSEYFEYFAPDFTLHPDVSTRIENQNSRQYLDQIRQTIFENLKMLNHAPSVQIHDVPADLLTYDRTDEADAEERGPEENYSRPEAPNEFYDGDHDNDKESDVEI
Description: Competitive inhibition of HDAC3 using KI-104 as substrate by fluorescence assay
In data set [2] the target is T1, Histone deacetylase 11 (Homo sapiens, UniProt Q96DB2).
T1 sequence (Q96DB2 whole entry): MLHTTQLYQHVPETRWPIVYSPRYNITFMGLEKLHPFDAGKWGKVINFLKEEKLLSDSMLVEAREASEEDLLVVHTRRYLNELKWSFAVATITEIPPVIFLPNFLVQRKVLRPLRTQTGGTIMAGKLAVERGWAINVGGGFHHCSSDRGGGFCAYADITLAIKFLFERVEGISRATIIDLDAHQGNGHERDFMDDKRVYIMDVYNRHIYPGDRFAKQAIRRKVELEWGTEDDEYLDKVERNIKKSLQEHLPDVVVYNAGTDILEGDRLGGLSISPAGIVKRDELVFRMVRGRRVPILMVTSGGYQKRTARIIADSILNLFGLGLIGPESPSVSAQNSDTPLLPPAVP
Description: Competitive inhibition of HDAC11 using KI-104 as substrate by fluorescence assay

Data set [3] deals with Histone deacetylase 5 (Homo sapiens, UniProt Q9UQL6).
Histone deacetylase 5, sequence (Q9UQL6 whole entry): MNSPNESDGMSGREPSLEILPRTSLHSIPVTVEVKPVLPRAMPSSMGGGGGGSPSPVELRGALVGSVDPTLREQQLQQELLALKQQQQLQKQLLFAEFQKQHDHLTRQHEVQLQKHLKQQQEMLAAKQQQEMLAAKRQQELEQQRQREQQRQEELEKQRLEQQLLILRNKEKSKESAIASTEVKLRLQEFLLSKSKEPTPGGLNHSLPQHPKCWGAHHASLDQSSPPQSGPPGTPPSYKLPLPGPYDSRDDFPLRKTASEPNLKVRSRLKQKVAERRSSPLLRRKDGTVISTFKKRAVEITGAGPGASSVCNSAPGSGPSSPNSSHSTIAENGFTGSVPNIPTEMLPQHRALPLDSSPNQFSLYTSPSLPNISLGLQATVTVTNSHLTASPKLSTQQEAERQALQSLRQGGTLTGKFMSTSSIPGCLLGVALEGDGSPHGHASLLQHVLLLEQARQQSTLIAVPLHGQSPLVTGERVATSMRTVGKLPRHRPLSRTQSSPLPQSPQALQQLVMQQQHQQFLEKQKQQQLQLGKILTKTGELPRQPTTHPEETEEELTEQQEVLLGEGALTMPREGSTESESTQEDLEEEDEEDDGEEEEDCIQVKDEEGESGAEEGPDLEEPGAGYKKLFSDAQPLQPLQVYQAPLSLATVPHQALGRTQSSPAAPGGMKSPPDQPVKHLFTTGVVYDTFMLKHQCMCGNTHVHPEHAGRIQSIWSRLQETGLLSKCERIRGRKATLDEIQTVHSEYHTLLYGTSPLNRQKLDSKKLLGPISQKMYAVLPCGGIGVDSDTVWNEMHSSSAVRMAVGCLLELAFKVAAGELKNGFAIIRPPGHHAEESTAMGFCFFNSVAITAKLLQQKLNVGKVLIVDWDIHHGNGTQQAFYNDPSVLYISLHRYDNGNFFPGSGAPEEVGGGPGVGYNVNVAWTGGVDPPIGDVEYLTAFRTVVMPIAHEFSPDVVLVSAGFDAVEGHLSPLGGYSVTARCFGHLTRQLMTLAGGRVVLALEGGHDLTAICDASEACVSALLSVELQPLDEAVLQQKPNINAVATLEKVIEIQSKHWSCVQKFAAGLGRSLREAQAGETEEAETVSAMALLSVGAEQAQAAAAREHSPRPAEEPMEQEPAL
Description: Competitive inhibition of HDAC5 using KI-104 as substrate by fluorescence assay
Data set [4] addresses T2, Histone deacetylase 1 (Homo sapiens, UniProt Q13547).
Description: Inhibition of full length recombinant HDAC1 using Fluor de Lys as substrate by fluorescence assay
In data set [5] the target is T3, Protein deacetylase HDAC6 (Homo sapiens, UniProt Q9UBN7).
T3 sequence (Q9UBN7 whole entry): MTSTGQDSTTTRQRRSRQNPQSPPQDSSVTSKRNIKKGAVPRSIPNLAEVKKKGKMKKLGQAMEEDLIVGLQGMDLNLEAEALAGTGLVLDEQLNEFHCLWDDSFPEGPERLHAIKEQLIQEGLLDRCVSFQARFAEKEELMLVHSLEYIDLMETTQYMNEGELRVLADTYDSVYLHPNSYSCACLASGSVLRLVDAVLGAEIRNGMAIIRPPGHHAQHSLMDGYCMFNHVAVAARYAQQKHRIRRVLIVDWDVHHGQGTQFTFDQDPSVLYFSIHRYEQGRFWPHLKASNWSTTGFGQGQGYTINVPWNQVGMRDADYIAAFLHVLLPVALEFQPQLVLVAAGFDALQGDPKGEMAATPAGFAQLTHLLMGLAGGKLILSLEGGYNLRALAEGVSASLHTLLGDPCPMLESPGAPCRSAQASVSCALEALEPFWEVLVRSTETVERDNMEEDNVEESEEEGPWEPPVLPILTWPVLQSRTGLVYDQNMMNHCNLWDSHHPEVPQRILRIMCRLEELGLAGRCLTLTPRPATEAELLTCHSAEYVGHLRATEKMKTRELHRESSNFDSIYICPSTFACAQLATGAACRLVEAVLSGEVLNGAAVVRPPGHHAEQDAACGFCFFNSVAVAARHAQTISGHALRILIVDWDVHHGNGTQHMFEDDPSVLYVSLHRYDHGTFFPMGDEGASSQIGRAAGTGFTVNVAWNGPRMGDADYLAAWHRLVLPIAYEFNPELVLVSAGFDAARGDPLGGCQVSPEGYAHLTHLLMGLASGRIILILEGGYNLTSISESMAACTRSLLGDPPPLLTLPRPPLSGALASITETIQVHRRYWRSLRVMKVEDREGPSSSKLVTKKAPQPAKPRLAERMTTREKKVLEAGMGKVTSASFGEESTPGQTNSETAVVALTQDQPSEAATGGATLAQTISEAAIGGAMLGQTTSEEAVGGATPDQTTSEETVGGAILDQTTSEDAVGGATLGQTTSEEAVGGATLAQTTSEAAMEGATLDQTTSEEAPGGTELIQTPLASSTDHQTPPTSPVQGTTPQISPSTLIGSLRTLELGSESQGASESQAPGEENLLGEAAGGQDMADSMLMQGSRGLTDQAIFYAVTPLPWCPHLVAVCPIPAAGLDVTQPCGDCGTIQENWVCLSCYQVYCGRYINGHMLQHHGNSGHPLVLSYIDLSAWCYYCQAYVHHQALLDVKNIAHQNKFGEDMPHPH
Description: Competitive inhibition of HDAC6 using KI-104 as substrate by fluorescence assay

For data set [6], the target named is Histone deacetylase 9 (Homo sapiens, UniProt Q9UKV0).
Histone deacetylase 9, sequence (Q9UKV0 whole entry): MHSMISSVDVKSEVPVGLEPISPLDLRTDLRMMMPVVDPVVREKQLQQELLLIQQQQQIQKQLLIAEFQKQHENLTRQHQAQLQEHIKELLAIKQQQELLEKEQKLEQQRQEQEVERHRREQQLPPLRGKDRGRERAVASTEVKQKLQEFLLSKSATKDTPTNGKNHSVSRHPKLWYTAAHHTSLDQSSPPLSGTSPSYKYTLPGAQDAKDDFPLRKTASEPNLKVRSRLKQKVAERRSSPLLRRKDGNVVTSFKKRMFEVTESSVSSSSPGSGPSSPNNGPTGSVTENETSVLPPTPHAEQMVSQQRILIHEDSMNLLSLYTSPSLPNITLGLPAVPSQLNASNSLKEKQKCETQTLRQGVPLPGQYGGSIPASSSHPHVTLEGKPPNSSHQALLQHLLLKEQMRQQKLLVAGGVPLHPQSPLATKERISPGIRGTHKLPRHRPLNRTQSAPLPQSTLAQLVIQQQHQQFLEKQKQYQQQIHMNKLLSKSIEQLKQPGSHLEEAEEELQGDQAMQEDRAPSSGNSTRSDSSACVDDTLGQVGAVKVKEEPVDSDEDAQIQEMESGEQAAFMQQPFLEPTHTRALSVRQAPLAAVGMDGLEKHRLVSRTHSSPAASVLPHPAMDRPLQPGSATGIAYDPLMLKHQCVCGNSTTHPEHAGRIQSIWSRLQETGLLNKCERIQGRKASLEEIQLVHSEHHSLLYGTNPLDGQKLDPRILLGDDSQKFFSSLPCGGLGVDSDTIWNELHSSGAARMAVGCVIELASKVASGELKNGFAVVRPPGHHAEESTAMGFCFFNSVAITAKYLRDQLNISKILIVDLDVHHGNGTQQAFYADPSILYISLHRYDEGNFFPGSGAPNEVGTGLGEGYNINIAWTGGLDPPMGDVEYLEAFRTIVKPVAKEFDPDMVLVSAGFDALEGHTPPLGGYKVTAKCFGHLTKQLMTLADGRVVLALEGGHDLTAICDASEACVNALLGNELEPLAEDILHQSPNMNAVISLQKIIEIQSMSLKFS
Description: Competitive inhibition of HDAC9 using KI-104 as substrate by fluorescence assay
Data set [7] addresses T4, Histone deacetylase 8 (Homo sapiens, UniProt Q9BY41).
T4 sequence (Q9BY41 whole entry): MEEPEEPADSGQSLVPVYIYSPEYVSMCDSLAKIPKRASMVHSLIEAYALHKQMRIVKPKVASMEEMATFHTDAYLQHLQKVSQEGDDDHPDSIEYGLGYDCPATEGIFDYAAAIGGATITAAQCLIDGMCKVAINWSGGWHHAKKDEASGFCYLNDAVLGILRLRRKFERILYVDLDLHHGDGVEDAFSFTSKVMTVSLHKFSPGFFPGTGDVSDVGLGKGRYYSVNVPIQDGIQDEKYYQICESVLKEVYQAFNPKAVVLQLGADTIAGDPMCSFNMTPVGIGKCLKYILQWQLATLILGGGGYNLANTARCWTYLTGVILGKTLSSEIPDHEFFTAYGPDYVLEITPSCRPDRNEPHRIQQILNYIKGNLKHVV
Description: Competitive inhibition of HDAC8 using KI-104 as substrate by fluorescence assay

Data set [8] deals with PC-3. The data set is described as follows: Antiproliferative activity against human PC3 cells after 96 hrs by celltiter 96 assay. The following applies: PC-3, 96 h. The format is functional, cell-based.
Data set [9] has as its system COLO 205. Briefly: Antiproliferative activity against human COLO205 cells after 96 hrs by celltiter 96 assay. The format is functional, cell-based. The settings on record: COLO 205, 96 h.
Data set [10] has as its target Histone deacetylase 4 (Homo sapiens, UniProt P56524).
Description: Competitive inhibition of HDAC4 using KI-104 as substrate by fluorescence assay
Data set [11] deals with T2, Histone deacetylase 1. The source holds these as a separate data set.
Description: Competitive inhibition of HDAC1 using KI-104 as substrate by fluorescence assay
The subject of data set [12] is HCT-116. The data set is described as follows: Antiproliferative activity against human HCT116 cells after 96 hrs by celltiter 96 assay. The settings on record: HCT-116, 96 h. Format: functional, cell-based.
In data set [13] the target is Histone deacetylase 2 (Homo sapiens, UniProt Q92769).
Histone deacetylase 2, sequence (Q92769 whole entry): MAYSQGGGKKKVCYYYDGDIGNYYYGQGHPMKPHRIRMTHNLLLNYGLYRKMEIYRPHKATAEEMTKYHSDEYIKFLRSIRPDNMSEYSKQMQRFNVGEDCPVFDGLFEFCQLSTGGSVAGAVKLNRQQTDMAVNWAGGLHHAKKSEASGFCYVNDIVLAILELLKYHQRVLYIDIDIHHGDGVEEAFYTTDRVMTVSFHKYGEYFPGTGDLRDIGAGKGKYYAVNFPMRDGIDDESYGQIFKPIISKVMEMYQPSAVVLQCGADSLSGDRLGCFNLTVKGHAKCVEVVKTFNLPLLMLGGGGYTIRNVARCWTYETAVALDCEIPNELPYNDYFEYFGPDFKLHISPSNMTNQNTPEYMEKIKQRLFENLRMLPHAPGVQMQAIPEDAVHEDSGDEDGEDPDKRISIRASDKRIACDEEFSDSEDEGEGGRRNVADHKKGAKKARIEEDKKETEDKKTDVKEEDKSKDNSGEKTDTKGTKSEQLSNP
Description: Competitive inhibition of HDAC2 using KI-104 as substrate by fluorescence assay
In data set [14] the test system is A2780. Briefly: Antiproliferative activity against human A2780 cells after 96 hrs by celltiter 96 assay. The format is functional, cell-based. The settings on record: A2780, 96 h.
Data set [15] has as its target T5, Polyamine deacetylase HDAC10 (Homo sapiens, UniProt Q969S8).
T5 sequence (Q969S8 whole entry): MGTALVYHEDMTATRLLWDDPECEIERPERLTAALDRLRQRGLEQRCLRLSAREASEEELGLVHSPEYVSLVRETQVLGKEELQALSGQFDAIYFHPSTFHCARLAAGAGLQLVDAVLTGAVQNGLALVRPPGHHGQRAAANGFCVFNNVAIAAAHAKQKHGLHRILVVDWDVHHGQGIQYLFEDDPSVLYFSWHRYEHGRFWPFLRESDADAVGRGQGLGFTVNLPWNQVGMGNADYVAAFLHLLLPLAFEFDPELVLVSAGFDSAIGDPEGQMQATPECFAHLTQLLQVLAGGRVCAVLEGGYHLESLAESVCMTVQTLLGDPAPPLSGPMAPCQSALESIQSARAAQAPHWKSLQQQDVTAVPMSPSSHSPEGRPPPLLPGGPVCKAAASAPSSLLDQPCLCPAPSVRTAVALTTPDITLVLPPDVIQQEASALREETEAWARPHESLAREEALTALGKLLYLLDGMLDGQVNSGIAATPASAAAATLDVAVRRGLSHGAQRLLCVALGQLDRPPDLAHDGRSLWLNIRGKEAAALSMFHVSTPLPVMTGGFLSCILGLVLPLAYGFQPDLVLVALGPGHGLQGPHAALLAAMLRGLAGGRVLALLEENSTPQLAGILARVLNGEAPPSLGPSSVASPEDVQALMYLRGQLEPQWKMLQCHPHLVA
Description: Competitive inhibition of HDAC10 using KI-104 as substrate by fluorescence assay

Data set [16] in a line: Apparent permeability from basolateral to apical side of human Caco2 cells. Format: ADME, cell-based. The following applies: Caco-2.
Data set [17] can be described thus: Apparent permeability from apical to basolateral side of human Caco2 cells. The format is ADME, cell-based. The settings on record: Caco-2.
Data set [18] in a line: Kinetic solubility of the compound at pH 7 with […] DMSO. The following applies: buffer, read-out: Kinetic_solubility. Format: physicochemical.
Data set [19] can be described thus: 1-Octanol-sodium phosphate buffer distribution coefficient, log D of the compound at pH 7.4. Format: physicochemical.
The nature of data set [20]: Half life in dog liver microsomes. The format is ADME, Canis lupus familiaris, Microsome. (Liver microsomes are vesicles of endoplasmic reticulum, rich in cytochrome P450 enzymes.)
The nature of data set [21]: Half life in mouse liver microsomes. Format: ADME, Microsome. The following applies: liver microsomes.
The nature of data set [22]: Half life in human liver microsomes. Format: ADME, Microsome.
Data set [23] is described as follows: Half life in rat liver microsomes. Format: ADME, Microsome.
Data set [24] can be described thus: Toxicity in po dosed athymic nu/nu Harlan mouse with xenografted human HCT116 cells assessed as maximum tolerated administered qd for 21 days. The format is organism-based, HCT-116. The settings on record: in vivo.
Data set [25] is described as follows: Oral bioavailability in Wistar rat at 10 mg/kg. Format: ADME, organism-based. The following applies: in vivo.

The structures appear in SMILES notation. pIC50, pKi: −log10 of the molar value. Where only a bound is given, the exact number is not on record here.

Histone deacetylase 4, sequence (P56524 whole entry): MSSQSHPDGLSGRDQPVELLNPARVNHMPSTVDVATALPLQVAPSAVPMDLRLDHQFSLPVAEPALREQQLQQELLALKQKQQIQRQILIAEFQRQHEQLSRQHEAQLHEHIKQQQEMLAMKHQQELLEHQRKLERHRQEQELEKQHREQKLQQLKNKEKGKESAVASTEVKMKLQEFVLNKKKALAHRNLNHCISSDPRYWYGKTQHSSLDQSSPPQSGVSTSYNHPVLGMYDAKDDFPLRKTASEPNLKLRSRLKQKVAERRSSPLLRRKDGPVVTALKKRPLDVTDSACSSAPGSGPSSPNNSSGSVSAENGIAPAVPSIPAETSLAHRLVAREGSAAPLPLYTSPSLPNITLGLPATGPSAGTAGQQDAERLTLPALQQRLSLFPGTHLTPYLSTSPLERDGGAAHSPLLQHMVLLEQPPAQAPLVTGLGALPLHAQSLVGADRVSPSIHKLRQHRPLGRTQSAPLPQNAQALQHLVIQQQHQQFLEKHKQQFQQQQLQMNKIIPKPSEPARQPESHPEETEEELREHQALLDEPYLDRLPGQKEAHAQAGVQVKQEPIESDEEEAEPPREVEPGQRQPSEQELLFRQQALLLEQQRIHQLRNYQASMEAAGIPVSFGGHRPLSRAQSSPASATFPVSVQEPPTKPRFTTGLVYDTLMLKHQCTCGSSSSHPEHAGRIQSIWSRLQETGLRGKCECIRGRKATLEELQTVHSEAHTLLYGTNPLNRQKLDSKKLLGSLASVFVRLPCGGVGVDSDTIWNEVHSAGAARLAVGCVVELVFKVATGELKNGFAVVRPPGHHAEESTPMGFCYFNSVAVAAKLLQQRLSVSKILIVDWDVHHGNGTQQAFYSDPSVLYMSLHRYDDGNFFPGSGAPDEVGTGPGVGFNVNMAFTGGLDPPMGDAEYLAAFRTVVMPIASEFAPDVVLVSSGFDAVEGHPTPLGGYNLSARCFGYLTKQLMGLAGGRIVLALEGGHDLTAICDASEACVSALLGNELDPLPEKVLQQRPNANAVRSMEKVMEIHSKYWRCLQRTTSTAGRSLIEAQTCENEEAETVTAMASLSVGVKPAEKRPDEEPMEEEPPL
T2 sequence (Q13547 whole entry): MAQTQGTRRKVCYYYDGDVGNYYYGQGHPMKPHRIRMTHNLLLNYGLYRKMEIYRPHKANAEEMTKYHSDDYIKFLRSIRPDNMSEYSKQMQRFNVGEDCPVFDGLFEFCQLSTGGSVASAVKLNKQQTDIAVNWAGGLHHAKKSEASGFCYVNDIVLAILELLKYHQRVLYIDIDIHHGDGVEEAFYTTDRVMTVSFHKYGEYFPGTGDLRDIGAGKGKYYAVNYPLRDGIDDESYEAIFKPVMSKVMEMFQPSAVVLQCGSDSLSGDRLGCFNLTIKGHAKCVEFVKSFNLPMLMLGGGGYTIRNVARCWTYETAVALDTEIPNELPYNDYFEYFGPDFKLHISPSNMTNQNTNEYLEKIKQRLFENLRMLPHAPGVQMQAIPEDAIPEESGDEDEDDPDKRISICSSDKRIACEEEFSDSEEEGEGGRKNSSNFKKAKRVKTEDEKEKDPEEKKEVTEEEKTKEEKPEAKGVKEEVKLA

`CC/C=C\CCc1nc2cc(/C=C/C(=O)NO)ccc2n1CCNCC`: the pKi was 7.80 in [1]; 8.06 in data set [2]; 8.51 in data set [3]; 8.40 in data set [5]; 8.24 in [6]; 7.26 in [7]. The pKi was 8.62 in data set [10], 8.11 in data set [11], 8.07 in [13] and 7.74 in [15]. Also, the pIC50 is 7.68 in data set [4]; 6.80 in [8]; 6.51 in [9]; 6.18 in data set [12]; 6.70 in [14].
As to `CCCCCc1nc2cc(/C=C/C(=O)NO)ccc2n1CCNC(C)C`, the pKi was 8.00 in data set [1]; 8.38 in [2]; 8.25 in data set [3]; 6.64 in [5]; 8.36 in data set [6]; 7.03 in data set [7]. Besides, the pKi is 8.44 in data set [10], 8.00 in data set [11], 7.85 in data set [13] and 7.72 in [15]. Besides, the pIC50 was 7.52 in data set [4]; 6.92 in [8]; 6.55 in data set [9]; 6.59 in data set [12]; 6.64 in data set [14].
For the molecule `Cl.O=C(/C=C/c1ccc2c(c1)nc(CCc1ccccc1)n2CCN1CCCC1)NO`, the Papp B→A in data set [16] was determined as 27.7 ×10⁻⁶ cm/s. Besides, the Papp A→B in [17] was 3.01 ×10⁻⁶ cm/s. For the same molecule, the solubility kinetic in data set [18] is more than 200 µM. Moreover, in data set [19] (1-octanol/sodium phosphate buffer, read-out: logD), the logD is 2.1. The half-life turned out to be 18 min in data set [20], 5 min in [21], 60 min in data set [22] and 4.3 min in data set [23].
For `CCCCCCc1nc2cc(/C=C/C(=O)NO)ccc2n1CCNCC`, the negative logarithm of the Ki (pKi) in [1] is 7.89; in data set [2], 7.89; in data set [3], 8.17; in data set [5] it was 6.55; in data set [6], 7.85; in data set [7], 7.27. Moreover, the pKi in data set [10] was 8.21; in data set [11], 7.96; in data set [13] it was 7.74; in data set [15], 7.55. Moreover, the pIC50 in [4] is 7.70; in data set [8], 6.68; in [9] it was 6.72; in data set [12], 6.64; in [14], 6.62. The MTD at 504 h in [24] came to 200 mg/kg. The bioavailability in [25] turned out to be 1.4%.
On to `CCCCc1nc2cc(/C=C/C(=O)NO)ccc2n1CCNC(C)C`, for which the pKi in data set [1] was 7.57; in data set [2], 7.74; in data set [3] it was 7.96; in data set [5], 6.65; in [6] it was 7.52; in data set [7] it was 7.11. The negative-log Ki (pKi) in [10] is 7.96; in [11], 7.59; in data set [13], 7.48; in [15], 7.47. Moreover, the pIC50 in [4] was 7.38; in data set [8] it was 6.64; in data set [9], 6.33; in data set [12], 6.47; in data set [14], 6.42. Moreover, in [24], the MTD at 504 h came to 200 mg/kg. Also, the bioavailability in data set [25] was determined as 9%.
In the case of `O=C(/C=C/c1ccc2c(c1)nc(CCc1ccccc1)n2CCN1CCCC1)NO`, the Papp B→A in data set [16] turned out to be 27.7 ×10⁻⁶ cm/s. In addition, the pKi is 7.92 in [1], 7.70 in [5], 7.02 in data set [7] and 8.07 in data set [10]. Further, the Papp A→B in data set [17] came out at 3.01 ×10⁻⁶ cm/s. Moreover, the solubility kinetic in data set [18] is more than 200 µM. Besides, the logD in [19] (octanol/water) is listed as 2.1. Moreover, the half-life in data set [20] was 18 min; in data set [21] it was 5 min; in [22], not below 30 min; in data set [23], 4.3 min. Further, the values for the pIC50 in [9] and in data set [12] were 6.89 and 6.72, respectively.
